Experiments:
Assay type in all cases: in vivo
ALOMY [1] = assay: Pre-emergence herbicidal activity, glasshouse pot test; details: rate 1000 g/Ha, evaluated after 13 days, scale 0-5
How it was run: (§1)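 Damage was rated 13 days after treatment on a 0–5 scale (0 = no damage, 5 = total damage). Pots of seeds in standard soil were sprayed one day after sowing with an aqueous solution from an acetone/water (50:50), 0.5% Tween 20 formulation and kept at 24/16 °C day/night.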

AMARE [2] = assay: as above; details: rate 1000 g/Ha, evaluated after 13 days, scale 0-5
How it was run: as §1

ECHCG [3] = assay: as above; details: rate 1000 g/Ha, evaluated after 13 days, scale 0-5
How it was run: as §1

SETFA [4] = assay: as above; details: rate 1000 g/Ha, evaluated after 13 days, scale 0-5
How it was run: as §1

ABUTH [5] = assay: Post-emergence herbicidal activity, glasshouse pot test; details: Abutilon theophrasti; application post-emergence; rate 1000 g/Ha; evaluated after 13 days
How it was run: (§2)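 Pot-grown seedlings sprayed 8 days after sowing with active ingredient in acetone/water (50:50) plus 0.5% Tween 20. Glasshouse at 24/16 °C day/night, 14 h light, 65% humidity, watered twice daily. Damage scored after 13 days on a 0–5 scale (5 = total damage, 0 = none).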

ALOMY [6] = assay: as above; details: Alopecurus myosuroides; application post-emergence; rate 1000 g/Ha; evaluated after 13 days
How it was run: as §2

AMARE [7] = assay: as above; details: Amaranthus retroflexus; application post-emergence; rate 1000 g/Ha; evaluated after 13 days
How it was run: as §2

ECHCG [8] = assay: as above; details: Echinochloa crus-galli; application post-emergence; rate 1000 g/Ha; evaluated after 13 days
How it was run: as §2

SETFA [9] = assay: as above; details: Setaria faberi; application post-emergence; rate 1000 g/Ha; evaluated after 13 days
How it was run: as §2

ZEAMX [10] = assay: as above; details: Zea mays; application post-emergence; rate 1000 g/Ha; evaluated after 13 days
How it was run: as §2

ABUTH [11] = assay: Pre-emergence herbicidal activity, glasshouse pot test; details: rate 1000 g/Ha, evaluated after 13 days, scale 0-5
How it was run: as §1

ZEAMX [12] = assay: as above; details: rate 1000 g/Ha, evaluated after 13 days, scale 0-5
How it was run: as §1

SMILES	ALOMY damage score, application pre-emergence (ALOMY [1])	AMARE damage score, application pre-emergence (AMARE [2])	ECHCG damage score, application pre-emergence (ECHCG [3])	SETFA damage score, application pre-emergence (SETFA [4])	Post-emergence herbicidal activity ABUTH (damage score 0-5) (ABUTH [5])	Post-emergence herbicidal activity ALOMY (damage score 0-5) (ALOMY [6])	Post-emergence herbicidal activity AMARE (damage score 0-5) (AMARE [7])	Post-emergence herbicidal activity ECHCG (damage score 0-5) (ECHCG [8])	Post-emergence herbicidal activity SETFA (damage score 0-5) (SETFA [9])	Post-emergence herbicidal activity ZEAMX (damage score 0-5) (ZEAMX [10])	ABUTH damage score, application pre-emergence (ABUTH [11])	ZEAMX damage score, application pre-emergence (ZEAMX [12])
COC1C(O)N(c2cc(C(F)(F)F)c(-c3cncnc3)cn2)C(=O)N1C (stereo not drawn) [Compound A15]	3	5	3	4	5	4	5	4	4	0	–	–
CN1C(=O)N(c2cc(C(F)(F)F)c(I)cn2)C(O)C1O (stereo not drawn) [Compound A17]	3	5	4	3	5	5	5	5	5	4	–	–
CCOC1C(O)N(c2cc(C(F)(F)F)c(-c3cncnc3)cn2)C(=O)N1C (stereo not drawn) [Compound A14]	4	5	5	5	5	4	5	5	5	3	–	–
CC1C(O)N(c2cc(C(F)F)c(Cl)cn2)C(=O)N1C (stereo not drawn) [Compound A86]	–	5	5	5	5	–	5	5	5	2	5	3
COC1C(O)N(c2cc(C(F)(F)F)c(I)cn2)C(=O)N1C (stereo not drawn) [Compound A18]	4	5	5	4	5	5	5	5	5	3	–	–
C=CCN1C(=O)N(c2cc(C(F)(F)F)ccn2)C(O)C1C (stereo not drawn) [Compound A107]	–	5	5	4	5	–	5	5	5	3	5	2
CC1C(O)N(c2cc(C(F)(F)C(F)(F)F)ccn2)C(=O)N1C (single isomer, unassigned) [Compound A72]	–	5	5	5	5	–	5	5	5	2	5	2
C[C@@H]1C(O)N(c2cc(C(F)(F)F)ccn2)C(=O)N1C (mixture of isomers) [Compound A38, (4R,5R)-4-hydroxy-1,5-dimethyl-3-[4-(trifluoromethyl)-2-pyridyl]imidazolidin-2-one and (4S,5R)-4-hydroxy-1,5-dimethyl-3-[4-(trifluoromethyl)-2-pyridyl]imidazolidin-2-one]	–	5	5	5	5	–	5	5	5	4	5	3
CC1NC(=O)N(c2cc(C(F)(F)Cl)ccn2)C1O (stereo not drawn) [Compound A91]	–	5	4	4	5	–	5	5	4	3	5	2
CCOC1C(O)N(c2cc(C(F)(F)F)c(I)cn2)C(=O)N1C (stereo not drawn) [Compound A16]	4	5	5	4	5	5	5	5	5	2	–	–
CN1C(=O)N(c2cc(C(F)(F)F)ccn2)C(O)C1CC(F)(F)F (stereo not drawn) [Compound A68]	–	0	0	0	0	–	0	0	0	0	0	0
CCOC1C(O)N(c2ccc(C(F)(F)F)cn2)C(=O)N1C (stereo not drawn) [Compound A83]	–	5	4	4	5	–	5	1	4	1	5	1

Source: patent publication US11608323B2 (SYNGENTA LIMITED, priority 2013, dated 2023)
